In US4684639A, “Antibacterial penicillins and cephalosporins” (Beecham Group, priority 1983, dated 1987):
Where a name gives a salt, the structure may show the parent alone.

What follows are compounds tested on Klebsiella aerogenes A (assay: MIC against Klebsiella aerogenes A). Conditions: not given.
Assay type: cell-based
Text: (§1) The antibiotic compounds of the present invention are active against a wide range of gram negative and gram positive organisms including E. coli such as, for example ESS, JT4, JT425 and NCTC 10418; Pseudomonas Spp. such as Ps.aeruginosa for example 10622 and Dalgleish; Serratia marcescens US32; Klebsiella aerogenes A; Enterobacter cloacae N1; P.mirabilis such as, for example C977 and 889; P.morganii, P.rettgeri; B.subtilis; Staph. aureus such as, for example Oxford and Russell; N.catarrhalis 1502; Strep faecalis I; β-Haemolytic Strep CN10. The MIC data included in the following examples is representative of the activity of the compounds of the present invention.

SMILES	MIC
CCN1CCN(C(=O)NC(C(=O)N[C@@H]2C(=O)N3[C@@H]2SC(C)(C)[C@@H]3C(=O)O)c2cc(O)c(O)cc2Cl)C(=O)C1=O (stereo partly drawn) [Example 1, Sodium 6,β-[D,L-2-(2-chloro-4,5-dihydroxyphenyl)-2-(2,3-dioxo-4-ethylpiperazin-1-ylcarbonylamino)acetamido penicillanate]	< 0.06 µg/mL
CCN1CCN(C(=O)NC(C(=O)N[C@@H]2C(=O)N3[C@@H](C(=O)O)CS[C@H]23)c2cc(OC(C)=O)c(OC(C)=O)cc2Cl)C(=O)C1=O (stereo partly drawn) [Example 2, Sodium 6,β[D,L-2-(2-chloro-4,5-diacetoxyphenyl)-2-(2,3-dioxo-4-ethylpiperazin-1-ylcarbonylamino)acetamido]bisnorpeniclllanate]	< 0.06 µg/mL
CCN1CCN(C(=O)NC(C(=O)N[C@@H]2C(=O)N3[C@@H]2SC(C)(C)[C@@H]3C(=O)O)c2cc(OC(C)=O)c(OC(C)=O)cc2F)C(=O)C1=O (stereo partly drawn) [Example 7, Sodium 6,β-[D,L-2-(4,5-diacetoxy-2-fluorophenyl)-2-(2,3-dioxo-4-ethylpiperazin-1-ylcarbonylamino)acetamido]penicillanate]	0.5 µg/mL
CCN1CCN(C(=O)N[C@@H](C(=O)N[C@@H]2C(=O)N3[C@@H]2SC(C)(C)[C@@H]3C(=O)O)c2cc(OC(C)=O)c(OC(C)=O)cc2Cl)C(=O)C1=O [Example 9, Sodium 6,β-[D-2-(2-chloro-4,5-diacetoxyphenyl)-2-(2,3-dioxo-4-ethylpiperazin-1-ylcarbonylamino)acetamido]penicillanate]	0.25 µg/mL
CCN1CCN(C(=O)NC(C(=O)N[C@@H]2C(=O)N3[C@@H]2SC(C)(C)[C@@H]3C(=O)O)c2cc(OC(C)=O)c(OC(C)=O)cc2Br)C(=O)C1=O (stereo partly drawn) [Example 10, Sodium 6,β-[D,L-2-(2-bromo-4,5-diacetoxyphenyl)-2-(2,3-dioxo-4-ethylpiperazin-1-ylcarbonylamino)acetamido]penicillanate]	1 µg/mL
CCN1CCN(C(=O)N[C@@H](C(=O)N[C@@H]2C(=O)N3[C@@H]2SC(C)(C)[C@@H]3C(=O)O)c2cc(O)c(O)cc2F)C(=O)C1=O [Example 11, Sodium 6,β-[D-2-(4,5-dihydroxy-2-fluorophenyl)-2-(2,3-dioxo-4-ethylpiperazin-1-ylcarbonylamino)acetamido]penicillanate]	1 µg/mL

Each compound was assayed on P. mirabilis 899 (assay: MIC against P. mirabilis 899). Conditions: Proteus mirabilis.
Assay type: cell-based
Text: as §1

SMILES	MIC
CCN1CCN(C(=O)N[C@@H](C(=O)N[C@]2(NC=O)C(=O)N3C(C(=O)O)=C(COC(C)=O)CS[C@@H]32)c2cc(OC(C)=O)c(OC(C)=O)cc2Br)C(=O)C1=O [Example 13, 7β[D-2-(2-Bromo-4,5-diacetoxyphenyl)-2-[(4-ethyl-2,3-dioxopiperazin-1-yl)carbonylamino]acetamido]-7α-formamidocephalosporanate, sodium salt]	0.25 µg/mL
CCN1CCN(C(=O)N[C@@H](C(=O)N[C@]2(NC=O)C(=O)N3C(C(=O)O)=C(COC(C)=O)CS[C@@H]32)c2cc(OC(C)=O)c(OC(C)=O)cc2F)C(=O)C1=O [Example 17, 7β[D-2-(4,5-Diacetoxy-2-fluorophenyl)-2-[(4-ethyl-2,3-dioxopiperazin-1-yl)carbonylamino]acetamido]-7α-formamidocephalosporanate, sodium salt]	0.5 µg/mL

The compounds below were run on Proteus mirabilis 889 (assay: MIC against Proteus mirabilis 889). Conditions: not given.
Assay type: cell-based
Text: as §1

SMILES	MIC
CCN1CCN(C(=O)NC(C(=O)N[C@]2(OC)C(=O)N3[C@@H](C(=O)O)C(C)(C)S[C@@H]32)c2cc(OC(C)=O)c(OC(C)=O)cc2Cl)C(=O)C1=O (stereo partly drawn) [Example 4, Sodium 6,β-[D,L-2-(2-chloro-4,5-diacetoxyphenyl)-2-(2,3-dioxo-4-ethylpiperazin-1-ylcarbonylamino)acetamido]-6,α-methoxypenicillanate]	4 µg/mL
CCN1CCN(C(=O)NC(C(=O)N[C@]2(NC=O)C(=O)N3[C@@H](C(=O)O)C(C)(C)S[C@@H]32)c2cc(OC(C)=O)c(OC(C)=O)cc2Cl)C(=O)C1=O (stereo partly drawn) [Example 5, Sodium 6,β-[D,L-2-(2-chloro-4,5-diacetoxyphenyl)-2-(2,3-dioxo-4-ethylpiperazin-1-ylcarbonylamino)acetamido]-6,α-formamidopenicillanate]	< 0.06 µg/mL
CCN1CCN(C(=O)N[C@@H](C(=O)N[C@]2(NC=O)C(=O)N3[C@@H](C(=O)O)C(C)(C)S[C@@H]32)c2cc(OC(C)=O)c(OC(C)=O)cc2Cl)C(=O)C1=O [Example 6]	< 0.06 µg/mL
CCN1CCN(C(=O)N[C@@H](C(=O)N[C@]2(NC=O)C(=O)N3[C@@H](C(=O)O)C(C)(C)S[C@@H]32)c2cc(OC(C)=O)c(OC(C)=O)cc2F)C(=O)C1=O [Example 8, Sodium 6,β-[D-2-(4,5-diacetoxy-2-fluorophenyl)-2-(2,3-dioxo-4-ethylpiperazin-1-ylcarbonylamino)acetamido]-6,α-formamidopenicillanate]	< 0.06 µg/mL
CCN1CCN(C(=O)N[C@@H](C(=O)N[C@]2(NC=O)C(=O)N3C(C(=O)O)=C(COC(C)=O)CS[C@@H]32)c2cc(OC(C)=O)c(OC(C)=O)cc2Cl)C(=O)C1=O [Example 14, 7β-[D-2-(2-chloro-4,5-diacetoxyphenyl)-2-[(4-ethyl-2,3-dioxopiperazin-1-yl)carbonylamino]acetamido]-7α-formamidocephalosporanate, sodium salt]	< 0.06 µg/mL
CCN1CCN(C(=O)N[C@@H](C(=O)N[C@]2(NC=O)C(=O)N3C(C(=O)O)=C(CSc4nnnn4C)CS[C@@H]32)c2cc(OC(C)=O)c(OC(C)=O)cc2Cl)C(=O)C1=O [Example 15, 7β-[D-2-(2-Chloro-4,5-diacetoxyphenyl)-2-[(4-ethyl-2,3-dioxopiperazin-1-yl)carbonylamino]acetamido]-7α-formamido-3-[(1-methyl-1H-tetrazol-5-yl)thiomethyl]ceph-3-em-4-carboxylic acid, sodium salt]	0.06 µg/mL
CCN1CCN(C(=O)N[C@@H](C(=O)N[C@]2(NC=O)C(=O)N3[C@@H](C(=O)O)C(C)(C)S[C@@H]32)c2cc(O)c(O)cc2F)C(=O)C1=O [Example 16, Sodium 6,β-[D-2-(4,5-dihydroxy-2-fluorophenyl)-2-(2,3-dioxo-4-ethylpiperazin-1-ylcarbonylamino)acetamido]-6,α-formamidopenicillanate]	0.25 µg/mL
